Laboratory results from ChEMBL document CHEMBL3286221, “Design and synthesis of novel 1,2,3-triazole derivatives of coronopilin as anti-cancer compounds” (Eur J Med Chem, 2014).
pIC50: −log10 of the molar value.

Key:
[1] = Cytotoxicity against human HCT15 cells after 48 hrs by sulforhodamine B assay; assay type: functional, cell-based; details: HCT-15, 48 h
[2] = test system: A549; test: Cytotoxicity against human A549 cells after 48 hrs by sulforhodamine B assay; assay type: functional, cell-based; details: A549, 48 h
[3] = test system: HeLa; test: Cytotoxicity against human HeLa cells after 48 hrs by sulforhodamine B assay; assay type: functional, cell-based
[4] = test system: MCF7; test: Cytotoxicity against human MCF7 cells after 48 hrs by sulforhodamine B assay; assay type: functional, cell-based; details: MCF7, 48 h
[5] = test system: PC-3; test: Cytotoxicity against human PC3 cells after 48 hrs by sulforhodamine B assay; assay type: functional, cell-based; details: PC-3, 48 h
[6] = test system: THP-1; test: Cytotoxicity against human THP1 cells after 48 hrs by sulforhodamine B assay; assay type: functional, cell-based; details: THP-1, 48 h
[7] = test system: PC-3; test: Cell cycle arrest in human PC3 cells assessed as accumulation at M phase at 5 uM after 24 hrs by propidium iodide staining-based flow cytometric analysis (reference value: 3%); assay type: functional
[8] = test system: PC-3; test: Cell cycle arrest in human PC3 cells assessed as accumulation at G0/G1 phase at 5 uM after 24 hrs by propidium iodide staining-based flow cytometric analysis (reference value: 68.2%); assay type: functional
[9] = test system: PC-3; test: Cell cycle arrest in human PC3 cells assessed as accumulation at S phase at 5 uM after 24 hrs by propidium iodide staining-based flow cytometric analysis (reference value: 8.5%); assay type: functional
[10] = test system: PC-3; test: Cell cycle arrest in human PC3 cells assessed as accumulation at sub-G1 phase at 5 uM after 24 hrs by propidium iodide staining-based flow cytometric analysis (reference value: 13.1%); assay type: functional
[11] = target: Transcription factor p65 (Homo sapiens) (UniProt Q04206); test: Inhibition of NFkappaB p65 binding to consensus DNA sequence in human PC3 cells after 24 hrs by ELISA; assay type: cell-based; details: PC-3
Sequence of Transcription factor p65 (Homo sapiens) (Q04206 whole entry): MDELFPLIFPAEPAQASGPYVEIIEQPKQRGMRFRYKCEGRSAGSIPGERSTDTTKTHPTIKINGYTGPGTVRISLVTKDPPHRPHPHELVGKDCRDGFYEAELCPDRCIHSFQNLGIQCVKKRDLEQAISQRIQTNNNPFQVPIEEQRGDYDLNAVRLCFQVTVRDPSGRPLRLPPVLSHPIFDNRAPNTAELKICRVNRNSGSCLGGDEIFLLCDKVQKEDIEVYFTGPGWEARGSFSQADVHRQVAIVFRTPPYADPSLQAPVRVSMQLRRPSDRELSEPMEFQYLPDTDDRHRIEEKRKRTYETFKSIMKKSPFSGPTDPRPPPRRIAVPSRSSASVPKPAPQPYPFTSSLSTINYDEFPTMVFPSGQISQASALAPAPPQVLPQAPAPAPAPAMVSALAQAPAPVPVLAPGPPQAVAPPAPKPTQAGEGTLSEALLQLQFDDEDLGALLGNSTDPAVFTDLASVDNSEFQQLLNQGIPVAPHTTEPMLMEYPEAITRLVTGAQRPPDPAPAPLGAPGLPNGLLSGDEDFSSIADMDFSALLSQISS

[12] = test system: PC-3; test: Cell cycle arrest in human PC3 cells assessed as accumulation at M phase at 10 uM after 24 hrs by propidium iodide staining-based flow cytometric analysis (reference value: 3%); assay type: functional
[13] = test system: PC-3; test: Cell cycle arrest in human PC3 cells assessed as accumulation at sub-G1 phase at 1 uM after 24 hrs by propidium iodide staining-based flow cytometric analysis (reference value: 13.1%); assay type: functional
[14] = target: Transcription factor p65 (Homo sapiens) (UniProt Q04206); test: Inhibition of NFkappaB p65 binding to consensus DNA sequence in human PC3 cells after 24 hrs by Western blotting analysis; assay type: cell-based; details: PC-3
[15] = test system: PC-3; test: Cell cycle arrest in human PC3 cells assessed as accumulation at M phase at 1 uM after 24 hrs by propidium iodide staining-based flow cytometric analysis (reference value: 3%); assay type: functional
[16] = test system: PC-3; test: Cell cycle arrest in human PC3 cells assessed as accumulation at S phase at 1 uM after 24 hrs by propidium iodide staining-based flow cytometric analysis (reference value: 8.5%); assay type: functional
[17] = test system: PC-3; test: Cell cycle arrest in human PC3 cells assessed as accumulation at sub-G1 phase after 24 hrs by propidium iodide staining-based flow cytometric analysis; assay type: functional
[18] = target: Transcription factor p65 (Homo sapiens) (UniProt Q04206); test: Inhibition of NFkappaB p65 binding to consensus DNA sequence in human PC3 cells at 100 uM after 24 hrs by ELISA relative to control; assay type: cell-based; details: PC-3
[19] = test system: PC-3; test: Cell cycle arrest in human PC3 cells assessed as accumulation at G0/G1 phase at 1 uM after 24 hrs by propidium iodide staining-based flow cytometric analysis (reference value: 68.2%); assay type: functional
[20] = test system: PC-3; test: Cell cycle arrest in human PC3 cells assessed as accumulation at sub-G1 phase at 10 uM after 24 hrs by propidium iodide staining-based flow cytometric analysis (reference value: 13.1%); assay type: functional
[21] = target: Transcription factor p65 (Homo sapiens) (UniProt Q04206); test: Inhibition of NFkappaB p65 binding to consensus DNA sequence in human PC3 cells at 100 uM after 24 hrs by Western blotting analysis relative to control; assay type: cell-based; details: PC-3
[22] = test system: PC-3; test: Cell cycle arrest in human PC3 cells assessed as accumulation at S phase at 10 uM after 24 hrs by propidium iodide staining-based flow cytometric analysis (reference value: 8.5%); assay type: functional
[23] = test system: PC-3; test: Cell cycle arrest in human PC3 cells assessed as accumulation at G0/G1 phase at 10 uM after 24 hrs by propidium iodide staining-based flow cytometric analysis (reference value: 68.2%); assay type: functional

Structure (SMILES) | pIC50 [1] | pIC50 [2] | pIC50 [3] | pIC50 [4] | pIC50 [5] | pIC50 [6] | further results
C=C1C(=O)O[C@@H]2[C@H]1CC[C@H](C)[C@]1(O)[C@@H](n3cc(CNn4ccc5cc(Br)ccc54)nn3)CC(=O)[C@@]21C | 4.59 | 4.00 | 5.14 | 5.35 | – | – | –
C=C1C(=O)O[C@@H]2[C@H]1CC[C@H](C)[C@]1(O)[C@@H](n3cc(COc4ccc(Br)cc4)nn3)CC(=O)[C@@]21C | 4.32 | 4.85 | 5.19 | 4.80 | 5.33 | 5.00 | –
C=C1C(=O)O[C@@H]2[C@H]1CC[C@H](C)[C@]1(O)[C@@H](n3cc(COc4ccccc4C)nn3)CC(=O)[C@@]21C | 5.26 | 5.21 | 5.08 | 5.43 | 5.00 | 5.42 | –
CC[C@@]1(O)C(=O)OCc2c1cc1n(c2=O)Cc2cc3ccccc3nc2-1 [CAMPTOTHECIN] | – | – | – | – | – | – | Activity [7]: 4.76%; Activity [8]: 30.17%; Activity [9]: 4.94%; Activity [10]: 60.44%
C=C1C(=O)O[C@@H]2[C@H]1CC[C@H](C)[C@]1(O)C=CC(=O)[C@@]21C [PARTHENIN] | 4.45 | 4.42 | – | 4.40 | 4.37 | 4.34 | –
C=C1C(=O)O[C@@H]2[C@H]1CC[C@H](C)[C@]1(O)[C@@H](n3cc(CNc4ccccc4C)nn3)CC(=O)[C@@]21C | 5.07 | 4.64 | 5.41 | 4.82 | 5.34 | 4.77 | –
C=C1C(=O)O[C@@H]2[C@H]1CC[C@H](C)[C@]1(O)[C@@H](n3cc(COc4ccccc4Br)nn3)CC(=O)[C@@]21C | 4.92 | 5.06 | 5.32 | 5.47 | 5.25 | 4.72 | –
C=C1C(=O)O[C@@H]2[C@H]1CC[C@H](C)[C@]1(O)[C@@H](n3cc(CNc4ccccc4F)nn3)CC(=O)[C@@]21C | 4.00 | 4.47 | 5.43 | 5.29 | 5.48 | – | –
C=C1C(=O)O[C@@H]2[C@H]1CC[C@H](C)[C@]1(O)[C@@H](n3cc(CNc4ccc(COC(F)(F)F)cc4)nn3)CC(=O)[C@@]21C | 4.00 | 4.64 | 4.77 | 4.77 | – | – | –
C=C1C(=O)O[C@@H]2[C@H]1CC[C@H](C)[C@]1(O)[C@@H](n3cc(COc4ccc5ccccc5c4)nn3)CC(=O)[C@@]21C | 4.70 | 5.05 | 5.14 | 4.62 | 5.44 | 4.60 | –
C=C1C(=O)O[C@@H]2[C@H]1CC[C@H](C)[C@]1(O)[C@@H](n3cc(CNc4ccc(F)cc4)nn3)CC(=O)[C@@]21C | 5.19 | 4.00 | 4.82 | 4.82 | – | 4.00 | –
C=C1C(=O)O[C@@H]2[C@H]1CC[C@H](C)[C@]1(O)[C@@H](n3cc(CNc4ccccc4OC)nn3)CC(=O)[C@@]21C | 4.82 | 4.64 | 4.55 | 4.55 | – | 4.00 | –
C=C1C(=O)O[C@@H]2[C@H]1CC[C@H](C)[C@]1(O)[C@@H](n3cc(COc4ccccc4F)nn3)CC(=O)[C@@]21C | 4.64 | 5.20 | 5.41 | 5.37 | 5.37 | 4.60 | –
C=C1C(=O)O[C@@H]2[C@H]1CC[C@H](C)[C@]1(O)[C@@H](n3cc(COc4ccc(Cl)cc4)nn3)CC(=O)[C@@]21C | 4.57 | 5.39 | 5.44 | 5.15 | 5.28 | 4.92 | –
C=C1C(=O)O[C@@H]2[C@H]1CC[C@H](C)[C@]1(O)[C@@H](n3cc(COc4ccccc4Cl)nn3)CC(=O)[C@@]21C | 5.28 | 5.38 | 5.44 | 5.01 | 5.51 | 5.42 | Activity [7]: 1.9%; inhibition [11]: Dose-dependent effect; Activity [12]: 1%; Activity [13]: 38.8%; inhibition [14]: Dose-dependent effect; Activity [8]: 51.2%; Activity [15]: 1%; Activity [16]: 4.2%; Activity [17]: Dose-dependent effect; inhibition [18]: 80%; Activity [19]: 52.3%; Activity [9]: 3.5%; Activity [20]: 49.2%; inhibition [21]: 80%; Activity [10]: 39.9%; Activity [22]: 3%; Activity [23]: 50.7%
C=C1C(=O)O[C@@H]2[C@H]1CC[C@H](C)[C@]1(O)[C@@H](n3cc(COc4ccc(C(F)(F)F)cc4)nn3)CC(=O)[C@@]21C | 4.00 | 5.42 | 5.46 | 4.89 | 5.19 | 4.32 | –
C=C1C(=O)O[C@@H]2[C@H]1CC[C@H](C)[C@]1(O)[C@@H](n3cc(CNc4ccccc4Br)nn3)CC(=O)[C@@]21C | 4.70 | 4.00 | 5.32 | 5.38 | – | 4.00 | –
C=C1C(=O)O[C@@H]2[C@H]1CC[C@H](C)[C@]1(O)[C@@H](n3cc(COc4ccc(C(C)C)cc4C)nn3)CC(=O)[C@@]21C | 4.35 | 4.68 | 5.17 | 4.49 | 5.12 | 4.48 | –
O=c1[nH]cc(F)c(=O)[nH]1 [FLUOROURACIL] | 5.35 | – | 5.31 | – | – | – | –
C=C1C(=O)O[C@@H]2[C@H]1CC[C@H](C)[C@]1(O)[C@@H](n3cc(COc4ccc(C)cc4)nn3)CC(=O)[C@@]21C | 4.41 | 4.68 | 4.00 | 5.38 | 5.12 | 4.59 | –
COc1cccc2c1C(=O)c1c(O)c3c(c(O)c1C2=O)C[C@@](O)(C(=O)CO)C[C@@H]3O[C@H]1C[C@H](N)[C@H](O)[C@H](C)O1 [DOXORUBICIN] | – | – | – | 6.30 | – | – | –
C=C1C(=O)O[C@@H]2[C@H]1CC[C@H](C)[C@]1(O)[C@@H](n3cc(CCC)nn3)CC(=O)[C@@]21C | 5.26 | 4.92 | 5.08 | 4.85 | 4.00 | – | –
CO[C@@]12[C@H](COC(N)=O)C3=C(C(=O)C(C)=C(N)C3=O)N1C[C@@H]1N[C@@H]12 [MITOMYCIN] | 6.30 | – | – | – | – | – | –
C=C1C(=O)O[C@@H]2[C@H]1CC[C@H](C)[C@]1(O)[C@@H](n3cc(CCc4ccccc4)nn3)CC(=O)[C@@]21C | 5.37 | 5.24 | 4.80 | 4.80 | – | 4.00 | –
